Consider 4 compounds from article PMC10878032 (Molecular cancer therapeutics, 2023).

One series has as its system bladder cancer. To be noted: cited from earlier work.
A further series deals with MCF-7 cells. As to the kind of experiment: aggresome formation and immunostaining. The conditions noted are these: MCF-7, 24 hours; SP-2-225 10 μmol/L, MG-132 5 μmol/L. It counts as cell-based, human.
For series [1], the system named is MCF-7 breast cancer cells. As to the kind of experiment: immunoblot of substrate acetylation in MCF-7 cells. It counts as cell-based, human. To be noted: SP-2-225 10 μmol/L, SAHA and SP-1–161 1 μmol/L, Western blot.
The conditions of series [2]: cited from earlier work.

Where a SMILES comes first, the peptide text is derived from it. The star is where a group is joined. Cbz = O=C(OCc1ccccc1)*

In the case of `O=C(CCCCCCC(=O)Nc1ccc([C@H]2O[C@@H](CSc3nc(-c4ccccc4)c(-c4ccccc4)o3)C[C@@H](c3ccc(CO)cc3)O2)cc1)NO` [Tubacin], the radiosensitization effect entry in the series on bladder cancer is “demonstrated radiosensitization effect”.
Regarding `CC(C)C[C@@H](C=O)NC(=O)[C@H](CC(C)C)NC(=O)[C@H](CC(C)C)NC(=O)OCc1ccccc1` [MG-132] (Cbz-Leu-Leu-Leu-aldehyde), in the series with MCF-7 cells, the aggresome formation result is reported as “significant aggresome formation”.
For the compound `O=C(CCCCCCC(=O)Nc1ccccc1)NO` [SAHA, suberoylanilide hydroxamic acid], in series [1], the “acetylation of histone H3” value was “increased the acetylation of α-tubulin and histone H3”; the “acetylation of α-tubulin” value is on record as “increased the acetylation of α-tubulin”.
As to `Cc1[nH]c2ccccc2c1CCNCc1ccc(/C=C/C(=O)NO)cc1` [LBH589], in series [2], the direct cytotoxic effect entry is “direct cytotoxic effect even at nanomolar concentrations”.
